Target: T1, Short transient receptor potential channel 5 (Homo sapiens, UniProt Q9UL62)
T1 sequence (Q9UL62 whole entry): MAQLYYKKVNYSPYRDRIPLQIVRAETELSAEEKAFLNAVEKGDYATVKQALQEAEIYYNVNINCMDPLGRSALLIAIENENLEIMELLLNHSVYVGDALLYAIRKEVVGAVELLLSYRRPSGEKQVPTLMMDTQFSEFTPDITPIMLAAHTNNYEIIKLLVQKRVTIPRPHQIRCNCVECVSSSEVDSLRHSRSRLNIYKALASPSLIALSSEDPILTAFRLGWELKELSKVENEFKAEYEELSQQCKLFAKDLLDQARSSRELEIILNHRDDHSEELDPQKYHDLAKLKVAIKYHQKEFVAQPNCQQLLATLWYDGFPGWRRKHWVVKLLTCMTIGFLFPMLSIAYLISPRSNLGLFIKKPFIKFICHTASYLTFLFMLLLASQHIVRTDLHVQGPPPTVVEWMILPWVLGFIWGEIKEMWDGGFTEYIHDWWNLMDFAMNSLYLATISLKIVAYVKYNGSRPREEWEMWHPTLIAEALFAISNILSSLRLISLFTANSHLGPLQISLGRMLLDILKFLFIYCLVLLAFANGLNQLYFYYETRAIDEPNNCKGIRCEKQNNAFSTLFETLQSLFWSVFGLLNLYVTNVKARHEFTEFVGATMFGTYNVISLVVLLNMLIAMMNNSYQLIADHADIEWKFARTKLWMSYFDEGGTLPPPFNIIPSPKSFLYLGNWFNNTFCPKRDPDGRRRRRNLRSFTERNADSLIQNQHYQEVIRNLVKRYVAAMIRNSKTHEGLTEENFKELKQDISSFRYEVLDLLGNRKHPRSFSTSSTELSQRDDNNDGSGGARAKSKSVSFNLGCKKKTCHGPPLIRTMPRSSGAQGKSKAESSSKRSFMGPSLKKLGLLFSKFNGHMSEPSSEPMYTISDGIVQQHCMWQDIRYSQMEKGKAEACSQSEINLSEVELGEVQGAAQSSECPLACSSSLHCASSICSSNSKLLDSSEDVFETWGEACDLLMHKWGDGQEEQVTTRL
Assay: High Throughput Screening Assay: The commercially available HEK293/TREx line (Invitrogen) was stably transfected with a TRPC5 construct and screened by conventional calcium imaging to find clones with TRPC5 expression following stimulation with 1 μg/ml tetracycline. These cells were maintained in the growth medium recommended by the manufacturer supplemented with 100 μg/ml hygromycin to promote retention of the TRPC5 construct. After growing to near confluency, cells were plated at a density of Ë¿35,000 cells/well in 384 well CellBind plates (Corning) in the presence of 1 μg/ml tetracycline, and allowed to grow for 20-30 hrs. A nearly confluent monolayer resulted. Cells were then loaded with Ca2+ dye: Fura-2/AM or Fluo4/AM was added to the wells to a final concentration of 4 μM or 0.5 μM, respectively, and incubated for 80 min or 60 min, respectively, at room temperature. Supernatant was then removed from the cells by inverting plates with a sharp flick, and 25 μl Hank's Balanced Salt Solution (HBSS; 0.185 g/l D-glucose, 0.9767 g/l MgS04 (anhydrous), 0.4 g/l KCl, 0.06 g/l KH2PO4 (anhydrous), 0.35 g/l NaHCO3, 8.0 g/l NaCl, and 0.04788 g/l Na2HPO4 (anhydrous); pH 7.4) was then added to each well. […]

SMILES	IC50
Cn1c(=O)n(CCCO)c(=O)c2c(C(O)c3ccc(Cl)cc3)c(Oc3cccc(OC(F)(F)F)c3)sc21 (configuration not stated)	194 nM
Cc1c(-c2cccc(Cl)c2Cl)sc2c1c(=O)n(CCCO)c(=O)n2C	31.6 nM
